This passage reports IC50 results from PMC11827853, “C2230, a preferential use- and state-dependent CaV2.2 channel blocker, mitigates pain behaviors across multiple pain models” (The Journal of Clinical Investigation, 2024).

As usually defined, the IC50 is the midpoint of a concentration-inhibition curve.

The subject of one test is T1, CaV1.2.
T1 construct: gene CACNA1C
As to the kind of experiment: patch-clamp of heterologously expressed channel, Vh -80 mV ([…] at -50 mV). Format: cell-based. For orientation: Patch clamp records ionic current or voltage across a cell membrane.

For test [1], the target named is T2, CaV2.2 (N-type) calcium channel (Rattus norvegicus, UniProt Q02294).
T2 construct: gene Cacna1b
The test can be described thus: patch-clamp in HEK293 cells expressing the channel, Vh -50 mV ([…] at -80 mV). Format: cell-based.

T2 sequence (Q02294 whole entry): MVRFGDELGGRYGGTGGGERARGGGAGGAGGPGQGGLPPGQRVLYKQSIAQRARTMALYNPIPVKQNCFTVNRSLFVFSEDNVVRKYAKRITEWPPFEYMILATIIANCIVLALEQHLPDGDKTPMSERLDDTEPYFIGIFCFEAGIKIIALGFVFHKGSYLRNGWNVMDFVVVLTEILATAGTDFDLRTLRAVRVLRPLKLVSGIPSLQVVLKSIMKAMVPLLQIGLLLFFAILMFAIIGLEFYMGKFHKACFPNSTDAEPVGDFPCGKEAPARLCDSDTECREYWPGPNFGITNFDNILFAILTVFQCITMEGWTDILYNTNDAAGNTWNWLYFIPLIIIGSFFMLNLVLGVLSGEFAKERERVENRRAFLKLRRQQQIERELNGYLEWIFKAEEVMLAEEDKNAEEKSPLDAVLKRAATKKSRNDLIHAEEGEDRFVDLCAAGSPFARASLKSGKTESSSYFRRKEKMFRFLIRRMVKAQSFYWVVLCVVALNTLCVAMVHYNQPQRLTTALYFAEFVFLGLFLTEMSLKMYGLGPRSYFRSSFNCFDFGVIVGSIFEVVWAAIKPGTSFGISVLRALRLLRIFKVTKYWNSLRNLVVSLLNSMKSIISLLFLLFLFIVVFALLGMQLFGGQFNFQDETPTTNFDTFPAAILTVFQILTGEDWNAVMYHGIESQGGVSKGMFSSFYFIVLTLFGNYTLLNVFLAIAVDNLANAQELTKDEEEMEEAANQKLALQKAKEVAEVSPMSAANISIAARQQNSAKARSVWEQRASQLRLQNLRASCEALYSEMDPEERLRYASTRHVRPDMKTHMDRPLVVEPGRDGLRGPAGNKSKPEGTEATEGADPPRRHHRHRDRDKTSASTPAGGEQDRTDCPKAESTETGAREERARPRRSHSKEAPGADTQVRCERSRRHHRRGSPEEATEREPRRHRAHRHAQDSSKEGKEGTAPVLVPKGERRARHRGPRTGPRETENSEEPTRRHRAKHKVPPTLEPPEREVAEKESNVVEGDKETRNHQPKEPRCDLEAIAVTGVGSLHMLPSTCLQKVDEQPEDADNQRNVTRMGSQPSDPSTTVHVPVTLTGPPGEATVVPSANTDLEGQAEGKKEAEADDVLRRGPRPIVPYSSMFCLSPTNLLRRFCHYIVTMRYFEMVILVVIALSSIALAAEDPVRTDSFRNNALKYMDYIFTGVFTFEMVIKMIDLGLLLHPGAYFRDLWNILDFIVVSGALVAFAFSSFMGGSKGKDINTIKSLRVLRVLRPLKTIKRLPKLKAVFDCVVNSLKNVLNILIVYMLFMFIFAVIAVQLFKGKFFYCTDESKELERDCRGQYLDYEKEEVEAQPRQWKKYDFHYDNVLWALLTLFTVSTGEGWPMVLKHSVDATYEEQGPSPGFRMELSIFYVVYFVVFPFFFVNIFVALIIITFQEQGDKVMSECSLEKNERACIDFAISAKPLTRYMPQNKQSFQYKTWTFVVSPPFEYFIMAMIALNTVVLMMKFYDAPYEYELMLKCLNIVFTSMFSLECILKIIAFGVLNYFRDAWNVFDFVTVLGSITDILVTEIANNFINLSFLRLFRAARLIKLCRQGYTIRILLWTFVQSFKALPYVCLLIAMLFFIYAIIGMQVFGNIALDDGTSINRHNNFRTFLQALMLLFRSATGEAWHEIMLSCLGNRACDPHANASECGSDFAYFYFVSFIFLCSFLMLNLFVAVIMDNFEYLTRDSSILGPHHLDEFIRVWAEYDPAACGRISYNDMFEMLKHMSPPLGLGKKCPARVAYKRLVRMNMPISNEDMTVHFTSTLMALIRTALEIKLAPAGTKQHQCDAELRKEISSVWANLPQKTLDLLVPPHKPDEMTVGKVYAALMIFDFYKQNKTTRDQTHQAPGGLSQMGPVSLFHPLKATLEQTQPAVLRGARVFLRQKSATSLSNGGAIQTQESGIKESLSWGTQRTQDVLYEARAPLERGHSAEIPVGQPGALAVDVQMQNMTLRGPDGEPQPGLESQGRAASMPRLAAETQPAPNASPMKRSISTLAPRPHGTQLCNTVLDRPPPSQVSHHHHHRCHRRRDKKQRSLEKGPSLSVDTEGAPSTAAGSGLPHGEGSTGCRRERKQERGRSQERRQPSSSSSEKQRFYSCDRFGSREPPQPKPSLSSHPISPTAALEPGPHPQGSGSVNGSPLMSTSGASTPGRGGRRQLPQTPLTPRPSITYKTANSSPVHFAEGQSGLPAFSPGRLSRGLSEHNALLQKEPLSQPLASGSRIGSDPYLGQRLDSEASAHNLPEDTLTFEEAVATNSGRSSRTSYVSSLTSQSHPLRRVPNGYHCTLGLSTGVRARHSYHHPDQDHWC

Turning to `COc1ccc(OCC(O)CNC2CCCC2)c(C(C)(C)C)c1` (racemic) [C2230, 1-(2-tert-butyl-4-methoxyphenoxy)-3-(cyclopentylamino)propan-2-ol], the IC50 with CaV1.2 stood at 22.7 ± 6.3 µM; in test [1], 1.3 ± 0.1 µM.
